Molecules are shown by their SMILES. Converted amounts (≈) assume the structure as drawn.

Assay [1] relates to Bacillus subtilis ATCC 9372. As to the kind of experiment: Determination of MIC and MBC by microdilution method, Bacillus subtilis ATCC 9372. Format: cell-based. The conditions noted are these: for Minimal inhibitory concentration (MIC): Mueller-Hinton broth. On the procedure: (§1) The compound have been tested towards 7 reference strains:
Bacillus subtilis ATCC 9372
(§2) The determination of minimal inhibitory concentrations (MIC) has been performed using a microdution method (microplates and inoculator Dynatech) in liquid medium (MUELLER-HINTON broth) under a volume of 100 μl and for a range of concentrations from 128 to 0.06 mg/l, prepared from a mother liquor of antibiotics titrating 512 mg/l. The preparation of these mother liquors has been performed and vary depending on the molecules as a function of the solubility criterions. Inoculation has been done by adding in each will, 10 μl of a dilution in saline of 18 hours old broth in a brain-heart broth, such as each well contains about 10^6 bacterias/ml.
(§3) The Minimal Inhibitory Concentrations are read as the first concentration of antibiotic which will not give a growth macroscopically detectable after 18 hours incubating at 37°.
For orientation: In broth dilution the organism is exposed to a series of concentrations in liquid medium.

Assay [2] deals with Staphylococcus aureus ATCC 25923. Put plainly: Determination of MIC and MBC by microdilution method, Staphylococcus aureus ATCC 25923. The format is cell-based. On the procedure: as §1
Staphylococcus aureus ATCC 25923
as §2, §3

Assay [3] relates to Streptococcus faecalis ATCC 8043. Put plainly: Determination of MIC and MBC by microdilution method, Streptococcus faecalis ATCC 8043. Format: cell-based. How it is done: as §1
Streptococcus faecalis ATCC 8043
(§4) The preparation of these mother liquors has been performed and vary depending on the molecules as a function of the solubility criterions. Inoculation has been done by adding in each will, 10 μl of a dilution in saline of 18 hours old broth in a brain-heart broth, such as each well contains about 10^6 bacterias/ml. […]

The test system of assay [4] is Escherichia coli ATCC 25922. As to the kind of experiment: Determination of MIC and MBC by microdilution method, Escherichia coli ATCC 25922. Format: cell-based. The conditions noted are these: E. coli ATCC 25922. How it is done:
as §1
Escherichia coli ATCC 25922
as §2, §3

The test system of assay [5] is Pseudomonas aeruginosa ATCC 22853. As to the kind of experiment: Determination of MIC and MBC by microdilution method, Pseudomonas aeruginosa ATCC 22853. Format: cell-based. How it is done: as §1
Pseudomonas aeruginosa ATCC 22853
as §4

The test system of assay [6] is Acinetobacter Baumanii ATCC 17904. As to the kind of experiment: Determination of MIC and MBC by microdilution method, Acinetobacter. The format is cell-based. On the procedure: The compound have been tested towards 7 reference strains: […]
as §2, §3

For the next assay, the system named is S. aureus CB-951. As to the kind of experiment: Determination of MIC and MBC by microdilution method, S. aureus CB-951. The conditions noted are these: erythromycinolincomycino, pefloxacino resistant. Format: cell-based, Staphylococcus aureus. How it is done:
as §1
Staphylococcus aureus CB 951
as §2, §3

The mark [7] stands for this setting: S. aureus ATCC 25923, Mueller-Hinton broth, 18 hours at 37°.
The mark [8] stands for this setting: S. faecalis ATCC 8043, Mueller-Hinton broth, 18 hours at 37°.
Where [9] appears, read: Mueller-Hinton broth, 18 hours at 37°.
Where [10] appears, read: P. aeruginosa ATCC 22853, Mueller-Hinton broth, 18 hours at 37°.
The mark [11] stands for this setting: Acinetobacter Baumanii ATCC 17904.
[12] abbreviates: Acinetobacter Baumanii ATCC 17904, Mueller-Hinton broth, 18 hours at 37°.
[13] abbreviates: S. aureus CB-951, methicillino, Mueller-Hinton broth, 18 hours at 37°.

On to `C=CCn1cc(C(=O)O)c(=O)c2cc(F)c(N3CCC(NC(C)=O)CC3)c(F)c21` [Compound 9, 7-(4-acetylaminopiperidinyl-1) 6,8-difluoro 1-allyl 4-oxo 1,4-dihydroquinoleinyl-3 carboxylic acid], for which the “Minimal bactericidal concentration (MBC)” value in assay [1] is 2 µg/mL (≈ 4.93 µM); in assay [2] (S. aureus ATCC 25923), 4 µg/mL (≈ 9.87 µM); in assay [3] (S. faecalis ATCC 8043), 16 µg/mL (≈ 39.5 µM); in assay [4], 32 µg/mL (≈ 78.9 µM); in assay [5] (P. aeruginosa ATCC 22853) it was more than 128 µg/mL; in assay [6] (setting [11]) it was 8 µg/mL (≈ 19.7 µM). Moreover, in the assay with S. aureus CB-951 (S. aureus CB-951, methicillino), the “Minimal bactericidal concentration (MBC)” value was 8 µg/mL (≈ 19.7 µM). The “Minimal inhibitory concentration (MIC)” value in assay [1] (18 hours at 37°) is 1 µg/mL (≈ 2.47 µM); in assay [2] (setting [7]), 1 µg/mL (≈ 2.47 µM); in assay [3] (setting [8]) it was 4 µg/mL (≈ 9.87 µM); in assay [4] (setting [9]), 16 µg/mL (≈ 39.5 µM); in assay [5] (setting [10]), more than 128 µg/mL; in assay [6] (setting [12]), 4 µg/mL (≈ 9.87 µM). Moreover, in the assay with S. aureus CB-951 (setting [13]), the “Minimal inhibitory concentration (MIC)” value was 4 µg/mL (≈ 9.87 µM).
With `C=CCn1cc(C(=O)O)c(=O)c2cc(F)c(N3CCC(CNC(=O)NC(=O)c4ccccc4)CC3)c(F)c21` [Compound 11, 7-[(4-benzoylaminocarboxamidomethyl)piperidinyl-1] 6,8-difluoro 1-allyl 4-oxo 1,4-dihydroquinoleinyl-3 carboxylic acid], the “Minimal bactericidal concentration (MBC)” value in assay [1] was 1 µg/mL (≈ 1.91 µM); in assay [2] (S. aureus ATCC 25923), 4 µg/mL (≈ 7.63 µM); in assay [3] (S. faecalis ATCC 8043), 32 µg/mL (≈ 61 µM); in assay [4], more than 128 µg/mL; in assay [5] (P. aeruginosa ATCC 22853), more than 128 µg/mL; in assay [6] (setting [11]) it was 4 µg/mL (≈ 7.63 µM). The “Minimal bactericidal concentration (MBC)” value in the assay with S. aureus CB-951 (S. aureus CB-951, methicillino) was 4 µg/mL (≈ 7.63 µM). The “Minimal inhibitory concentration (MIC)” value in assay [1] (18 hours at 37°) is 0,5 μg/ml; in assay [2] (setting [7]), 1 µg/mL (≈ 1.91 µM); in assay [3] (setting [8]), 16 µg/mL (≈ 30.5 µM); in assay [4] (setting [9]), 128 µg/mL (≈ 244 µM); in assay [5] (setting [10]) it was 128 µg/mL (≈ 244 µM); in assay [6] (setting [12]), 1 µg/mL (≈ 1.91 µM). In the assay on S. aureus CB-951 (setting [13]), the “Minimal inhibitory concentration (MIC)” value was determined as 4 µg/mL (≈ 7.63 µM).
For the compound `CCn1cc(C(=O)O)c(=O)c2cc(F)c(N3CCC(CN)CC3)c(F)c21` [Compound 1, 7-(4-aminomethylpiperidinyl-1) 6,8-difluoro 1-ethyl 4-oxo 1,4-dihydroquinoleinyl-3 carboxylic acid], the MIC was 0.25 µg/mL (≈ 0.684 µM) in assay [1] (ATCC9372, Mueller-Hinton broth, 18 hours at 37°, read-out: Minimal inhibitory concentration (MIC)); 0.25 µg/mL (≈ 0.684 µM) in assay [2] (Staphylococcus aureus, ATCC25923, 18 h, S. aureus ATCC 25923, Mueller-Hinton broth, 18 hours at 37°, read-out: Minimal inhibitory concentration (MIC)); 0.5 µg/mL (≈ 1.37 µM) in assay [3] (Enterococcus faecalis, ATCC8043, S. faecalis ATCC 8043, Mueller-Hinton broth, 18 hours at 37°, read-out: Minimal inhibitory concentration (MIC)); 0.5 µg/mL (≈ 1.37 µM) in assay [4] (Escherichia coli, ATCC25922, Mueller-Hinton broth, 18 hours at 37°, read-out: Minimal inhibitory concentration (MIC)); 2 µg/mL (≈ 5.47 µM) in assay [5] (Pseudomonas aeruginosa, ATCC22853, 18 h, P. aeruginosa ATCC 22853, Mueller-Hinton broth, 18 hours at 37°, read-out: Minimal inhibitory concentration (MIC)); 0.25 µg/mL (≈ 0.684 µM) in assay [6] (Acinetobacter baumannii, ATCC17904, 18 h, Acinetobacter Baumanii ATCC 17904, Mueller-Hinton broth, 18 hours at 37°, read-out: Minimal inhibitory concentration (MIC)). Also, in the assay on S. aureus CB-951 (Staphylococcus aureus, CB951, 18 h, S. aureus CB-951, methicillino, Mueller-Hinton broth, 18 hours at 37°, read-out: Minimal inhibitory concentration (MIC)), the MIC stood at 2 µg/mL (≈ 5.47 µM). In addition, the MBC in assay [1] (ATCC9372, read-out: Minimal bactericidal concentration (MBC)) is 0.25 µg/mL (≈ 0.684 µM); in assay [2] (Staphylococcus aureus, ATCC25923, S. aureus ATCC 25923, read-out: Minimal bactericidal concentration (MBC)) it was 0.25 µg/mL (≈ 0.684 µM); in assay [3] (Enterococcus faecalis, ATCC8043, S. faecalis ATCC 8043, read-out: Minimal bactericidal concentration (MBC)) it was 0.5 µg/mL (≈ 1.37 µM); in assay [4] (Escherichia coli, ATCC25922, read-out: Minimal bactericidal concentration (MBC)), 0.5 µg/mL (≈ 1.37 µM); in assay [5] (Pseudomonas aeruginosa, ATCC22853, P. aeruginosa ATCC 22853, read-out: Minimal bactericidal concentration (MBC)) it was 4 µg/mL (≈ 10.9 µM); in assay [6] (Acinetobacter baumannii, ATCC17904, Acinetobacter Baumanii ATCC 17904, read-out: Minimal bactericidal concentration (MBC)) it was 0.5 µg/mL (≈ 1.37 µM). In the assay with S. aureus CB-951 (Staphylococcus aureus, CB951, S. aureus CB-951, methicillino, read-out: Minimal bactericidal concentration (MBC)), the MBC came to 2 µg/mL (≈ 5.47 µM).

Source of the values: patent US5420140A, “Difluorinated quinolones useful for treating bacterial infections” (Bouchara S.A., priority 1991, dated 1995).
